Source: PubChem BioAssay (NCI)
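Dose response: 5 concentrations. Exposure: 48 h. Format: 96-well plates. Endpoint: linear interpolation; highest concentration if not reached. TGI: total growth inhibition.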

How the values were obtained:
Assay in all cases: NCI anticancer screen, dose series, 48 h
DMS 114 small cell lung = tested on: DMS 114 small cell lung
KM20L2 colon = tested on: KM20L2 colon
RXF-631 renal = tested on: RXF-631 renal
XF 498 CNS = tested on: XF 498 CNS
SNB-78 CNS = tested on: SNB-78 CNS
HOP-18 NSCLC = tested on: HOP-18 NSCLC
DLD-1 colon = tested on: DLD-1 colon
LXFL 529 NSCLC = tested on: LXFL 529 NSCLC
DMS 273 small cell lung = tested on: DMS 273 small cell lung
SN12K1 renal = tested on: SN12K1 renal

| SMILES | TGI (DMS 114 small cell lung) | TGI (KM20L2 colon) | TGI (RXF-631 renal) | TGI (XF 498 CNS) | TGI (SNB-78 CNS) | TGI (HOP-18 NSCLC) | TGI (DLD-1 colon) | TGI (LXFL 529 NSCLC) | TGI (DMS 273 small cell lung) | TGI (SN12K1 renal) |
| --- | --- | --- | --- | --- | --- | --- | --- | --- | --- | --- |
| NCc1cc(O)c(O)c(O)c1 | > 100 µM | > 100 µM | > 100 µM | > 100 µM | > 100 µM | > 100 µM | > 100 µM | > 100 µM | > 100 µM |  |
| O=C(CCN1CCOCC1)C(=Cc1ccccc1)C(=O)CCN1CCOCC1 |  | 25 µM |  | 12.8 µM | 8.5 µM | 30.6 µM | 3.84 µM |  | 26 µM | 5.68 µM |
| C[N+](C)=c1nc(N2CCc3ccccc3C2)ss1 | > 100 µM | > 100 µM | > 100 µM |  | > 100 µM | > 100 µM | > 100 µM | > 100 µM | > 100 µM |  |
| CC(=O)NNc1nc(C)c(C(=O)NNC(=O)C(=O)Nc2c(C)cccc2C(C)(C)C)s1 |  | > 100 µM |  | > 100 µM | > 100 µM |  | > 100 µM | > 100 µM | > 100 µM |  |
